This is an account of results in patent US20260027096A1, “PHD INHIBITORS” (Oxford University Innovation Limited, priority 2023, published 2026).

Chain of PHD2 (Q9GZT9 181-426): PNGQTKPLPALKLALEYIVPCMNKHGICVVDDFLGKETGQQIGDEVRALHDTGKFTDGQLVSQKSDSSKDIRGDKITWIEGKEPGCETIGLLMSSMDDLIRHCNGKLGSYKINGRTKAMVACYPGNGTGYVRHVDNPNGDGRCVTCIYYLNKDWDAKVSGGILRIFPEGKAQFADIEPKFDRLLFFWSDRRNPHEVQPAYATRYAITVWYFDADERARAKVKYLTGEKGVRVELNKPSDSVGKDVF

The test addresses PHD2 (Homo sapiens (Human), UniProt Q9GZT9). The test is described as follows: PHD2 RF-MS (RapidFire LC-MS) hydroxylation assay. It counts as biochemical. As for the experimental part: In brief, cDNA encoding for the catalytic domain of tPHD2 (181-426 residues) was cloned into the pET28a (+)/pET24a (+) vectors (Novagen), to enable production of tPHD2 (residues 181-426) protein with/without an N-terminal His6-tag. The tPHD2 (residues 181-426) encoding construct was transformed into the Escherichia coli BL21 DE3 cell line; protein production was induced with 0.5 mM […] (3-5 hr at 28° C.). […] The protein was exchanged into 50 mM Tris-HCl buffer (pH 7.5) and concentrated to % 40 mg/ml.
Tris(hydroxymethyl)aminomethane was from Fisher. Ferrous ammonium sulfate (FAS), 2-oxoglutarate (2OG) and L-ascorbic acid were from Sigma Aldrich; solutions of these were prepared freshly each day. All inhibition assays were carried out in 384-well polypropylene plates (Greiner Bio-One). PHD2 assays were performed in assay buffer (50 mM Tris. Cl pH 7.5, 50 mM NaCl). […] The final assay concentration of DMSO was kept constant at 0.5%. PHD2 protein was prepared at a concentration of 300 nM in assay buffer and 25 μl dispensed across each 384-well assay plate. The PHD2 solution was allowed to equilibrate with the inhibitors for 15 minutes at room temperature; the enzyme reaction then initiated by dispense of 25 μl of substrate (20 μM FAS, 200 µM L-ascorbic acid, 10 μM CODD peptide and 20 μM 2OG in the assay buffer. Enzyme reactions were allowed to proceed for 20 minutes at room temperature and the reaction terminated by addition of 10% formic acid (5 μl). Assay plates were then transferred to a RapidFire RF360 sampling robot (Agilent) connected to an Agilent 6530 accurate mass quadrupole-time-of-flight (Q-TOF) mass spectrometer. Assay samples were aspirated under vacuum and loaded onto a C4 solid phase extraction (SPE) cartridge. After loading the C4 SPE was washed with 0.1% formic acid in water to remove non-volatile buffer salts and then peptide was eluted from the SPE with 85% acetonitrile, 15% water containing 0.1% formic acid onto the mass spectrometer. Peptide charge states were monitored in positive mode. Ion chromatogram data were extracted for the +2 charge state and peak area data integrated using RapidFire Integrator software (Agilent). % conversion of the CODD peptide substrate to the +16 hydroxylated peptide was calculated using the equation: % conversion=100×hydroxylated/(hydroxylated+non-hydroxylated peptide). IC50 values were determined from non-linear regression plots using GraphPad prism.
Example 158—Structure activity relationship (SAR) studies for PHD inhibition SAR studies for PHD inhibition were carried out on the compounds of the invention. Compounds were screened against PHD2 using the RF-MS hydroxylation assay.
The molecule `O=C(NCc1cccc(-c2ccccc2)c1)c1cnc(-n2cccn2)c(O)c1` [Compound 76, N-([1,1′-Biphenyl]-3-ylmethyl)-5-hydroxy-6-(1H-pyrazol-1-yl) nicotinamide] registered an IC50 of 1 to 10 µM.
The value for `N#Cc1cnn(-c2ncc(C(=O)NCc3ccc(-c4ccccc4)cc3)cc2O)c1` [Compound 125, N-([1,1′-biphenyl]-4-ylmethyl)-6-(4-cyano-1H-pyrazol-1-yl)-5-hydroxynicotinamide] was 0.001 to 1 µM.
The value for `O=C(Nc1cccc(-c2ccccc2)c1)c1cnc(-n2cccn2)cc1O` [Compound 66, N-([1,1′-Biphenyl]-3-yl)-4-hydroxy-6-(1H-pyrazol-1-yl) nicotinamide] was 0.001 to 1 µM.
Then `O=C(O)c1cnn(-c2cc(O)c(C(=O)NCc3ccc(-c4ccccc4)cc3)cn2)c1` [Compound 84, 1-(5-(([1,1′-Biphenyl]-4-ylmethyl)carbamoyl)-4-hydroxypyridin-2-yl)-1H-pyrazole-4-carboxylic acid], with 0.001 to 1 µM; and `O=C(O)c1cnn(-c2ncc(C(=O)NCc3ccc(-c4ccccc4)cc3)cc2O)c1` [Compound 86, 1-(5-(([1,1′-Biphenyl]-4-ylmethyl)carbamoyl)-3-hydroxypyridin-2-yl)-1H-pyrazole-4-carboxylic acid], with 0.001 to 1 µM; and `O=C(NCc1cccc(-c2ccccc2)c1)c1cnc(-n2cccn2)cc1O` [Compound 65, N-([1,1′-Biphenyl]-3-ylmethyl)-4-hydroxy-6-(1H-pyrazol-1-yl) nicotinamide], with 0.001 to 1 µM.
Regarding `O=C(NCc1ccc(-c2ccccc2)cc1)c1cnc(-n2cccn2)nc1` [Compound 20, N-([1,1′-Biphenyl]-4-ylmethyl)-2-(1H-pyrazol-1-yl)pyrimidine-5-carboxamide], the IC50 is > 10 µM.
The molecule `N#Cc1cnc(-n2cc(C(=O)NCc3ccc(-c4ccccc4)cc3)cn2)cc1O` [Compound 95, N-([1,1′-Biphenyl]-4-ylmethyl)-1-(5-cyano-4-hydroxypyridin-2-yl)-1H-pyrazole-4-carboxamide] registered an IC50 of 0.001 to 1 µM.
The value for `O=C(O)c1ccnc(-n2cc(C(=O)NCc3ccc(-c4ccccc4)cc3)cn2)c1` [Compound 103, 2-(4-(([1,1′-Biphenyl]-4-ylmethyl)carbamoyl)-1H-pyrazol-1-yl) isonicotinic acid] was > 10 µM.
The value for `O=C(NCc1cccc(C(F)(F)F)c1)c1cnc(-n2cccn2)cc1O` [Compound 43, 4-Hydroxy-6-(1H-pyrazol-1-yl)-N-(3-(trifluoromethyl)benzyl) nicotinamide] was 1 to 10 µM; that for `O=C(NCc1ccc(-c2ccccc2)cc1)c1cnn(-c2cc(O)ccn2)c1` [Compound 99, N-([1,1′-Biphenyl]-4-ylmethyl)-1-(4-hydroxypyridin-2-yl)-1H-pyrazole-4-carboxamide] was 1 to 10 µM.
Then `O=C(NCc1ccc(-c2ccccc2)cc1)c1cnn(-c2cc(O)c(C(=O)O)cn2)c1` [Compound 96, 6-(4-(([1,1′-Biphenyl]-4-ylmethyl)carbamoyl)-1H-pyrazol-1-yl)-4-hydroxynicotinic acid], with 1 to 10 µM; and `O=C(O)c1cnn(-c2cc(O)c(C(=O)NCc3ccc(-c4ccccc4)nc3)cn2)c1` [Compound 91, 1-(4-Hydroxy-5-(((6-phenylpyridin-3-yl)methyl)carbamoyl)pyridin-2-yl)-1H-pyrazole-4-carboxylic acid], with 0.001 to 1 µM; and `COc1cc(-n2cc(C(=O)NCc3ccc(-c4ccccc4)cc3)cn2)ncc1C#N` [Compound 93, N-([1,1′-Biphenyl]-4-ylmethyl)-1-(5-cyano-4-methoxypyridin-2-yl)-1H-pyrazole-4-carboxamide], with > 10 µM.
`N#Cc1cnc(-n2cc(C(=O)NCc3ccc(-c4ccc(C(=O)O)cc4)nc3)cn2)nc1O` [Compound 162, 4-(5-((1-(5-cyano-4-hydroxypyrimidin-2-yl)-1H-pyrazole-4-carboxamido)methyl)pyridin-2-yl)benzoic acid] returned an IC50 of 1 to 10 µM.
The value for `O=C(O)c1cnn(-c2cc(O)c(C(=O)NCc3ccc(C(F)(F)F)cc3)cn2)c1` [Compound 90, 1-(4-Hydroxy-5-((4-(trifluoromethyl)benzyl)carbamoyl)pyridin-2-yl)-1H-pyrazole-4-carboxylic acid] was 0.001 to 1 µM.
Then `O=C(O)c1cnn(-c2ccc(C(=O)NCc3ccccc3)cn2)c1` [Compound 32, 1-(5-(Benzylcarbamoyl)pyridin-2-yl)-1H-pyrazole-4-carboxylic acid], with 1 to 10 µM.
Then `N#Cc1cnn(-c2cc(O)c(C(=O)NCc3ccc(C(F)(F)F)cc3)cn2)c1` [Compound 89, 6-(4-Cyano-1H-pyrazol-1-yl)-4-hydroxy-N-(4-(trifluoromethyl)benzyl) nicotinamide], with 0.001 to 1 µM.
`N#Cc1ccc(-n2cc(C(=O)NCc3ccc(-c4ccccc4)cc3)cn2)nc1` [Compound 97, N-([1,1′-Biphenyl]-4-ylmethyl)-1-(5-cyanopyridin-2-yl)-1H-pyrazole-4-carboxamide]: the concentration for half-maximal inhibition (IC50) is > 10 µM.
Then `N#Cc1cnn(-c2cc(O)c(C(=O)NCc3ccc(-c4ccccc4)cc3)cn2)c1` [Compound 85, N-([1,1′-Biphenyl]-4-ylmethyl)-6-(4-cyano-1H-pyrazol-1-yl)-4-hydroxynicotinamide], with 0.001 to 1 µM; and `COc1ccc([C@H](C)NC(=O)c2cnc3c(c(C)nc4cc(C)nn43)c2O)cc1` [Compound 180, (S)-6-hydroxy-N-(1-(4-methoxyphenyl)ethyl)-2,5-dimethylpyrazolo[1,5-a]pyrido[3,2-e]pyrimidine-7-carboxamide], with 0.001 to 1 µM.
Molecule `O=C(O)c1cnn(-c2ccc(C(=O)NCc3ccc(-c4ccccc4)cc3)cn2)c1` [Compound 31, 1-(5-(([1,1′-Biphenyl]-4-ylmethyl)carbamoyl)pyridine-2-yl)-1H-pyrazole-4-carboxylic acid] gave an IC50 of 0.001 to 1 µM.
The value for `O=C(NCc1cccc(-c2ccccc2)c1)c1cnn(-c2cc(O)ccn2)c1` [Compound 109, N-([1,1′-Biphenyl]-3-ylmethyl)-1-(4-hydroxypyridin-2-yl)-1H-pyrazole-4-carboxamide] was 1 to 10 µM; that for `O=C(NCC1CCCCC1)c1cnc(-n2cccn2)cc1O` [Compound 44, N-(Cyclohexylmethyl)-4-hydroxy-6-(1H-pyrazol-1-yl) nicotinamide] was > 10 µM; that for `O=C(NCc1ccc(C(F)(F)F)cc1)c1cnc(-n2cccn2)cc1O` [Compound 64, 4-Hydroxy-6-(1H-pyrazol-1-yl)-N-(4-(trifluoromethyl)benzyl) nicotinamide] was 0.001 to 1 µM.
Then `O=C(NCc1ccc(-c2ccccc2)cc1)c1cnc(-n2cccn2)cc1O` [Compound 41, N-([1,1′-Biphenyl]-4-ylmethyl)-4-hydroxy-6-(1H-pyrazol-1-yl) nicotinamide], with 0.001 to 1 µM; and `O=C(NCc1ccc(-c2ccccc2)cc1)c1ccc(-n2cccn2)cc1O` [Compound 16, N-([1,1′-biphenyl]-4-ylmethyl)-2-hydroxy-4-(1H-pyrazol-1-yl)benzamide], with > 10 µM.
In the case of `COc1cc(C(=O)NCc2ccc(-c3ccccc3)cc2)cnc1-n1cc(C#N)cn1` [Compound 124, N-([1,1′-biphenyl]-4-ylmethyl)-6-(4-cyano-1H-pyrazol-1-yl)-5-methoxynicotinamide], the 50% inhibitory concentration (IC50) was in the range of 0.001 to 1 µM.
Then `O=C(NCc1ccc(-c2ccccc2)cc1)c1ccc(-n2cccn2)nc1` [Compound 22, N-([1,1′-Biphenyl]-4-ylmethyl)-6-(1H-pyrazol-1-yl) nicotinamide], with > 10 µM.
The value for `O=C(Nc1ccc(-c2ccccc2)cc1)c1cnn(-c2cc(O)ccn2)c1` [Compound 108, N-([1,1′-Biphenyl]-4-yl)-1-(4-hydroxypyridin-2-yl)-1H-pyrazole-4-carboxamide] was > 10 µM; that for `O=C(Nc1ccc(-c2ccccc2)cc1)c1cnc(-n2cccn2)cc1O` [Compound 42, N-([1,1′-Biphenyl]-4-yl)-4-hydroxy-6-(1H-pyrazol-1-yl) nicotinamide] was 0.001 to 1 µM.
Then `Cc1cc2nc(C)c3c(O)c(C(=O)NCc4ccc(-c5cccc(N6CCOCC6)c5)nc4)cnc3n2n1` [Compound 176, 6-hydroxy-2,5-dimethyl-N-((6-(3-morpholinophenyl)pyridin-3-yl)methyl) pyrazolo[1,5-a]pyrido[3,2-e]pyrimidine-7-carboxamide], with 1 to 10 µM.
`O=C(NCc1ccc(-c2ccccc2)cc1)c1cnc(-n2cccn2)c(O)c1` [Compound 75, N-([1,1′-Biphenyl]-4-ylmethyl)-5-hydroxy-6-(1H-pyrazol-1-yl) nicotinamide] showed an IC50 of 1 to 10 µM.
